Experimental data published in patent publication US6933304B2, “Heteroarylalkanoic acids as integrin receptor antagonists” (Pharmacia Corporation, priority 2000, dated 2005).

Legend:
[1] = biological target: T1, Human fibrinogen receptor (IIb/IIIa) (Homo sapiens, UniProt P05106+P08514); assay: Purified IIb/IIIa receptor assay (solid phase receptor assay, SPRA); type: binding; details: selectivity ratio: IC50 αIIbβ3 (solid phase receptor assay) over IC50 β3
T1 construct: Human fibrinogen receptor (IIb/IIIa) was purified from outdated platelets; from tissue; host or cells: outdated human platelets
T1 sequence (P08514 32-887 limits assumed): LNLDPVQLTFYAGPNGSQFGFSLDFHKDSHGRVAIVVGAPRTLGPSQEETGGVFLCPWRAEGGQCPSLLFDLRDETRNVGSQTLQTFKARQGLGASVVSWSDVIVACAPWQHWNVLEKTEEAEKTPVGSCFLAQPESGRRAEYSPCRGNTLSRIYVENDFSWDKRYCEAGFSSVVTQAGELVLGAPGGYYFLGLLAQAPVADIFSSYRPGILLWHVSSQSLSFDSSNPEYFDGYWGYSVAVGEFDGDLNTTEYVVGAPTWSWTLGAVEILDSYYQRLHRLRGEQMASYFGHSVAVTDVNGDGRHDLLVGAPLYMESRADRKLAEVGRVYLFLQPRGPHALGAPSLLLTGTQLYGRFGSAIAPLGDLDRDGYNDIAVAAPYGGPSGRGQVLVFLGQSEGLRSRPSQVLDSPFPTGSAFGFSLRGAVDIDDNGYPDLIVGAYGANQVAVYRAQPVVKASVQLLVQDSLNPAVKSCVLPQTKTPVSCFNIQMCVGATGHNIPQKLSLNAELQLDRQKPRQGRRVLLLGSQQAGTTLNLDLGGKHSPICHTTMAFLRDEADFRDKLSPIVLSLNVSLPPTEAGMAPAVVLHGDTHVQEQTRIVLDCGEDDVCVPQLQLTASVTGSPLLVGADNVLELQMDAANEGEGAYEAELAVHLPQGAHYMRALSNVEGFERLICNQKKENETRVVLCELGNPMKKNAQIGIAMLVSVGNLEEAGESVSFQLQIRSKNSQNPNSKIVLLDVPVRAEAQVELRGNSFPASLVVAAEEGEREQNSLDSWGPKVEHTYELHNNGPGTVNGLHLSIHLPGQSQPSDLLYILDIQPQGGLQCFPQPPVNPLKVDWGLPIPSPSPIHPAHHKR
T1 sequence (P08514 891-1039 partner limits assumed): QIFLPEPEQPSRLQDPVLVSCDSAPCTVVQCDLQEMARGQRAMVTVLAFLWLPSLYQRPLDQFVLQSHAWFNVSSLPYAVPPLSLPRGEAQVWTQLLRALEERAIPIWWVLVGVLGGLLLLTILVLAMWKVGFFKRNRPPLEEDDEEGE
T1 sequence (P05106 27-788): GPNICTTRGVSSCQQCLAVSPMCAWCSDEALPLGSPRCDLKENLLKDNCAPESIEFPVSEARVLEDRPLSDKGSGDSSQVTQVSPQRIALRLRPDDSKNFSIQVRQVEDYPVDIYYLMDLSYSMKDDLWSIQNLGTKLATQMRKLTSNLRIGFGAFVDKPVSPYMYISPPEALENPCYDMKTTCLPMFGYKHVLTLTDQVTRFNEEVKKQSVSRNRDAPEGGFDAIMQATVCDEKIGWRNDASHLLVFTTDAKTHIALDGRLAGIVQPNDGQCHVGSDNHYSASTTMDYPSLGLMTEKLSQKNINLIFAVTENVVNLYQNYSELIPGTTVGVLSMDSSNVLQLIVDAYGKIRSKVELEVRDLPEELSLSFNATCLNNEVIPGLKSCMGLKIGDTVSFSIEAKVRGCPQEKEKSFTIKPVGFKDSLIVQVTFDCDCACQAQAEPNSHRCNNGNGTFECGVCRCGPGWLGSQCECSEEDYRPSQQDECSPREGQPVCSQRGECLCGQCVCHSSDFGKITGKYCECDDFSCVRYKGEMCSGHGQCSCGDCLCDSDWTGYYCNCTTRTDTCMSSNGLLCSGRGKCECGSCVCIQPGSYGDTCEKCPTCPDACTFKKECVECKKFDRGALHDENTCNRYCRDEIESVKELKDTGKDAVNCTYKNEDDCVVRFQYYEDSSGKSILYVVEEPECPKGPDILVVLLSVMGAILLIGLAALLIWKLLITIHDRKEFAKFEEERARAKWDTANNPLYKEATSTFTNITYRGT
Text: Human fibrinogen receptor (IIb/IIIa) was purified from outdated platelets. (Pytela, R., Pierschbacher, M. D., Argraves, S., Suzuki, S., and Rouslahti, E. “Arginine-Glycine-Aspartic acid adhesion receptors”, Methods in Enzymology 144(1987):475-489.) Human vitronectin was purified from fresh frozen plasma as described in Yatohgo, T., Izumi, M., Kashiwagi, H., and Hayashi, M., “Novel purification of vitronectin from human plasma by heparin affinity chromatography,” Cell Structure and Function 13(1988):281-292. Biotinylated human vitronectin was prepared by coupling NHS-biotin from Pierce Chemical Company (Rockford, IL) to purified vitronectin as previously described. (Charo, I. F., Nannizzi, L., Phillips, D. R., Hsu, M. A., Scarborough, R. M., “Inhibition of fibrinogen binding to GP IIb/IIIa by a GP IIIa peptide”, J. Biol. Chem. 266(3)(1991): 1415-1421.) Assay buffer, OPD substrate tablets, and RIA grade BSA were obtained from Sigma (St. Louis, Mo.). Anti-biotin antibody was obtained from Sigma (St. Louis, Mo.). Nalge Nunc-Immuno microtiter plates were obtained from (Rochester, N.Y.). ADP reagent was obtained from Sigma (St. Louis, Mo.).
This assay is essentially the same reported in Niiya, K., Hodson, E., Bader, R., Byers-Ward, V. Koziol, J. A., Plow, E. F. and Ruggeri, Z. M., “Increased surface expression of the membrane glycoprotein IIb/IIIa complex induced by platelet activation: Relationships to the binding of fibrinogen and platelet aggregation”, Blood 70(1987):475-483. The purified human fibrinogen receptor (IIb/IIIa) was diluted from stock solutions to 1.0 μg/mL in Tris-buffered saline containing 1.0 mM Ca^++, Mg^++, and Mn^++, pH 7.4 (TBS^+++). The diluted receptor was immediately transferred to Nalge Nunc-Immuno microtiter plates at 100 μL/well (100 ng receptor/well). The plates were sealed and incubated overnight at 4° C. to allow the receptors to bind to the wells. All remaining steps were at room temperature. The assay plates were emptied and 200 μL of 1% RIA grade BSA in TBS^+++ (TBS^+++/BSA) were added to block exposed plastic surfaces. Following a 2 hour incubation, the assay plates were washed with TBS^+++ using a 96 well plate washer. Logarithmic serial dilution of the test compound and controls were made starting at a stock concentration of […] and using 2 nM biotinylated vitronectin in TBS^+++/BSA as the diluent. This premixing of labeled ligand with test (or control) ligand, and subsequent transfer of 50 μL aliquots to the assay plate was carried out with a CETUS Propette robot; the final concentration of the labeled ligand was 1 nM and the highest concentration of test compound was 1.0×10^−4 M. The competition occurred for two hours after which all wells were washed with a plate washer as before. Affinity purified horseradish peroxidase labeled goat anti-biotin antibody was diluted 1:2000 in TBS^+++/BSA and 125 μL were added to each well. After 45 minutes, the plates were washed and incubated with […] substrate in 100 mM/L citrate buffer, pH 5.0. The plate was read with a microtiter plate reader at a wavelength of 450 nm and when the maximum-binding control wells reached an absorbance of about 1.0, the final A450 were recorded for analysis. The data were analyzed using a macro written for use with the EXCELJ spreadsheet program. The mean, standard deviation, and %CV were determined for duplicate concentrations. The mean A450 values were normalized to the mean of four maximum-binding controls (no competitor added)(B-MAX). The normalized values were subjected to a four parameter curve fit algorithm, [Robard et al., Int.

[2] = biological target: T2, αVβ3 integrin (293-β3 cells) (Homo sapiens, UniProt P05106+P06756); assay: 293-β3 cell adhesion assay (adhesion to immobilized vitronectin); type: cell-based; details: 200 uM Mn2+, read-out: 293-β3 (IC50 <10 μM)
T2 construct: expressed in transfected cells; host or cells: 293 human embryonic kidney cells (293-β3)
T2 sequence (P06756 31-889 limits assumed): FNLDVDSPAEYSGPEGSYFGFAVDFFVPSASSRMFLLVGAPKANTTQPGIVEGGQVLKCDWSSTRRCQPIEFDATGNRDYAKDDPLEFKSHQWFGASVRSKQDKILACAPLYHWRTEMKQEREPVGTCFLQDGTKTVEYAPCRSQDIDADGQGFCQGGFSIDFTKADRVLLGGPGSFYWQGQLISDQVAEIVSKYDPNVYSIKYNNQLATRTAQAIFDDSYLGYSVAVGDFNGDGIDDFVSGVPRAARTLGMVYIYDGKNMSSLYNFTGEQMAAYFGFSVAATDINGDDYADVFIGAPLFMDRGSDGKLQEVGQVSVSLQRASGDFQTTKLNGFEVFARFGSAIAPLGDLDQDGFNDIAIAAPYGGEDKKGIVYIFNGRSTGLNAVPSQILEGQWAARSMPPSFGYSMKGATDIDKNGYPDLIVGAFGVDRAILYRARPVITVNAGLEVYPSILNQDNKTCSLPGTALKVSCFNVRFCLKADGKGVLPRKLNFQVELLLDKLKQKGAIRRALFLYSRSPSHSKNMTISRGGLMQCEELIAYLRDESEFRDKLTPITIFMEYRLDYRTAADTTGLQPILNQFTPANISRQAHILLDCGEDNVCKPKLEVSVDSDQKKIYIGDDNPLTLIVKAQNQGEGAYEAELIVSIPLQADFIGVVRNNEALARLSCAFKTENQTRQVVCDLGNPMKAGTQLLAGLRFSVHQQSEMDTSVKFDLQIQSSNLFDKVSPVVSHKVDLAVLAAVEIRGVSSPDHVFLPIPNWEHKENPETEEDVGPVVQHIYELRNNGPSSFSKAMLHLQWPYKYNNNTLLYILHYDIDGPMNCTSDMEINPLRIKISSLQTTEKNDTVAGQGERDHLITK
T2 sequence (P06756 891-1048 partner limits assumed): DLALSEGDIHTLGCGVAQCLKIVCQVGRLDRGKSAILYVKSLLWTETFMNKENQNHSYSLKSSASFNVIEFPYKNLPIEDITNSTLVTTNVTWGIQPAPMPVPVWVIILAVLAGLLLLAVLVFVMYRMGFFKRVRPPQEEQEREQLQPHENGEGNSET
T2 sequence (P05106 27-788): as the sequence (P05106 27-788) above
Text: While the β3 subunit of αVβ3 is only known to complex with αV or αIIb, the αV subunit complexes with multiple β subunits. The three αV integrins most homologous with αVβ3 are αVβ1, αVβ5 and αVβ6, with 43%, 56% and 47% amino acid identity in the β subunits, respectively. To evaluate the selectivity of compounds between the integrins αVβ3 and αVβ6, cell-based assays were established using the 293 human embryonic kidney cell line. 293 cells express αVβ1, but little to no detectable αVβ3 or αVβ6. cDNAs for β3 and β6 were transfected separately into 293 cells to generate 293-β3 and 293-β6 cells, respectively. High surface expression of αVβ3 and αVβ6 was confirmed by flow cytometry. Conditions were established for each cell line in which cell adhesion to immobilized human vitronectin was mediated by the appropriate integrin, as determined by a panel of integrin-specific, neutralizing monoclonal antibodies. Briefly, cells were incubated with inhibitor in the presence of 200 uM Mn^2+, allowed to adhere to immobilized vitronectin, washed, and adherent cells are detected endogenous alkaline phosphatase and para-nitrophenyl phosphate. An 8-point dose-response curve using either 10-fold or 3-fold dilutions of compound was evaluated by fitting a four-parameter logistic, nonlinear model (using SAS).

[3] = biological target: T3, αVβ6 (HT-29 human colon carcinoma cells) (Homo sapiens, UniProt P06756+P18564); assay: HT-29 cell adhesion assay (adhesion to immobilized LAP); type: cell-based; details: selectivity ratio: IC50 αVβ6 (HT-29) over IC50 β3
T3 construct: endogenous in cells; host or cells: HT-29 human colon carcinoma cells
T3 sequence (P06756 31-889 limits assumed): as the sequence (P06756 31-889 limits assumed) above
T3 sequence (P06756 891-1048 partner limits assumed): as the sequence (P06756 891-1048 partner limits assumed) above
T3 sequence (P18564 22-788): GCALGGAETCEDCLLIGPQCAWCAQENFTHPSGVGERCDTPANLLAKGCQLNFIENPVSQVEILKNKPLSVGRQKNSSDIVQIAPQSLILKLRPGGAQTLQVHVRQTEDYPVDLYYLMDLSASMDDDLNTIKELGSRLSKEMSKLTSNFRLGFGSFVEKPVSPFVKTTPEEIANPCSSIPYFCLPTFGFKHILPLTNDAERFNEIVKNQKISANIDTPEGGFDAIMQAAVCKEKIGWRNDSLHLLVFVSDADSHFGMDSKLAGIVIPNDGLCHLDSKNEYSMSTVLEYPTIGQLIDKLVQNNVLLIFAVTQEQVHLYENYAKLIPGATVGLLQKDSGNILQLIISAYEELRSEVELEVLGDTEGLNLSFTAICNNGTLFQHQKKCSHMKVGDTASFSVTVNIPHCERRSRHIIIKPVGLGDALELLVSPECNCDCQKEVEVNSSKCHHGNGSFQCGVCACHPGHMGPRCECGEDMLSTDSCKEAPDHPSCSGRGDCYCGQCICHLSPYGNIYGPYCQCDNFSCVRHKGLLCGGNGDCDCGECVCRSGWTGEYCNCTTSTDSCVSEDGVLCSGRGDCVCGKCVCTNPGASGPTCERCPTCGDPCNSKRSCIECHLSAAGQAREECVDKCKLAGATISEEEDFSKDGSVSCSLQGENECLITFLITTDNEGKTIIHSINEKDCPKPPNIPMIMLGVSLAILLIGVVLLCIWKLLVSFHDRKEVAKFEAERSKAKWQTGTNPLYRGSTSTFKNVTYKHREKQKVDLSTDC
Description: To evaluate compound potency for membrane-bound αVβ6 an additional cell-based adhesion assay was established using the HT-29 human colon carcinoma cell line. High surface expression of αVβ6 on HT-29 cells was confirmed by flow cytometry. Conditions were established in which cell adhesion to immobilized human latency associated peptide (LAP) was mediated by the αVβ6, as determined by a panel of integrin-specific, neutralizing monoclonal antibodies. Briefly, cells were incubated with inhibitor in the presence of 200 uM Mn^2+, allowed to adhere to immobilized LAP, washed, and adherent cells are detected by quantifying endogenous alkaline phosphatase using para-nitrophenyl phosphate. An 8-point dose-response curve using either 10-fold or 3-fold dilutions of compound was evaluated by fitting a four-parameter logistic, nonlinear model (using SAS). The compounds evaluated were relatively ineffective at inhibition of αVβ6-mediated cell adhesion. The selective antagonism of the αVβ3 integrin is viewed as desirable in this class of compounds, as αVβ6 may also play a role in normal physiological processes of tissue repair and cellular turnover that routinely occur in the skin and pulmonary tissues.

Compound | SPRA AIIbB3 Selectivity* IIbIIIa/β3 [1] | IC50 [2] [µM] | HT-29 β-6 Selectivity* (β6/β3) [3]
CCCC(C)(CC(=O)O)Cc1nc(CCCc2ccc3c(n2)NCCC3)no1 (stereo not drawn) [Example 44, 3-Methyl-3-{3-[3-(5,6,7,8-tetrahydro-[1,8]naphthyridin-2-yl)-propyl]-[1,2,4]oxadiazol-5-ylmethyl}-hexanoic acid] | +++ (Selectivity Ratio >100 +++) | < 10 | +++ (Selectivity Ratio >100 +++)
CCC(CC)(CC(=O)O)Cc1nc(CCCc2ccc3c(n2)NCCC3)no1 [Example 45, 3-Ethyl-3-{3-[3-(5,6,7,8-tetrahydro-[1,8]naphthyridin-2-yl)-propyl]-[1,2,4]oxadiazol-5-ylmethyl}-pentanoic acid] | ++ (Selectivity Ratio of 10-100 ++) | < 10 | ++ (Selectivity Ratio of 10-100 ++)
CC(C)C(C)(CC(=O)O)Cc1nc(CCCc2ccc3c(n2)NCCC3)no1 (stereo not drawn) [Example 46, 3,4-Dimethyl-3-{3-[3-(5,6,7,8-tetrahydro-[1,8]naphthyridin-2-yl)-propyl]-[1,2,4]oxadiazol-5-ylmethyl}-pentanoic acid] | +++ (Selectivity Ratio >100 +++) | < 10 | +++ (Selectivity Ratio >100 +++)
CC(CC(=O)O)(Cc1nc(CCCc2ccc3c(n2)NCCC3)no1)c1ccccc1 (stereo not drawn) [Example 47, 3-Methyl-3-phenyl-4-{3-[3-(5,6,7,8-tetrahydro-[1,8]naphthyridin-2-yl)-propyl]-[1,2,4]oxadiazol-5-yl}-butyric acid] | +++ (Selectivity Ratio >100 +++) | < 10 | +++ (Selectivity Ratio >100 +++)
O=C(O)CCCc1nc(CCCc2ccc3c(n2)NCCC3)no1 [Example 50, 4-{3-[3-(5,6,7,8-Tetrahydro-[1,8]naphthyridin-2-yl)-propyl]-[1,2,4]oxadiazol-5-yl}-butyric acid] | +++ (Selectivity Ratio >100 +++) | < 10 | +++ (Selectivity Ratio >100 +++)
CC(CC(=O)O)(Cc1nc(CCCc2ccc3c(n2)NCCC3)no1)c1cccnc1 (stereo not drawn) [Example 51, 3-Methyl-3-pyridin-3-yl-4-{3-[3-(5,6,7,8-tetrahydro-[1,8]naphthyridin-2-yl)-propyl]-[1,2,4]oxadiazol-5-yl}-butyric acid] | +++ (Selectivity Ratio >100 +++) | < 10 | +++ (Selectivity Ratio >100 +++)
CC(CC(=O)O)(Cc1nc(CCCCNc2ccccn2)no1)c1cccnc1 (stereo not drawn) [Example 57, 3-Methyl-3-pyridin-3-yl-4-{3-[4-(pyridin-2-ylamino)-butyl]-[1,2,4]oxadiazol-5-yl}-butyric acid] | +++ (Selectivity Ratio >100 +++) | < 10 | +++ (Selectivity Ratio >100 +++)
CC(C)(CC(=O)O)Cc1nc(CCCCNc2ccccn2)no1 [Example 62, β,β-dimethyl-3-[4-(2-pyridinylamino)butyl]-1,2,4-oxadiazole-5-butanoic acid] | +++ (Selectivity Ratio >100 +++) | < 10 | +++ (Selectivity Ratio >100 +++)
CC(CC(=O)O)Cc1nc(CCCCNc2ccccn2)no1.Cl (stereo not drawn) [Example 69, 3-methyl-4-{3-[4-(pyridin-2-ylamino)butyl]-1,2,4-oxadiazol-5-yl}butanoic acid] | ++ (Selectivity Ratio of 10-100 ++) | < 10 | +++ (Selectivity Ratio >100 +++)
CC(CC(=O)O)Cc1nc(CCCc2ccc3c(n2)NCCC3)no1 (stereo not drawn) [Example 70, 3-methyl-4-{3-[3-(5,6,7,8-tetrahydro-1,8-naphthyridin-2-yl)propyl]-1,2,4-oxadiazol-5-yl}butanoic acid] | +++ (Selectivity Ratio >100 +++) | < 10 | +++ (Selectivity Ratio >100 +++)
